Assay results published in article PMC12389136, “Insights into the Structural Patterns in Human Glioblastoma Cell Line SF268 Activity and ADMET Prediction of Curcumin Derivatives” (Pharmaceutics, 2025).

System: ROS production in SF268 cells
Test: Intracellular reactive oxygen species production (DCFDA)
Type: cell-based, Human
Conditions: derivatives 10 µg/mL for 3 h, H2O2 100 µM positive control
Description: Intracellular ROS formation was measured by fluorometry with the reactive dye chloromethyl dichlorodihydrofluorescein diacetate (DCFDA; Molecular Probes). […] Cultures were incubated with curcumin derivatives at 10 μg/mL for 3 h, after which the ROS-specific fluorescent dye DCFDA solution was added to the cells. After 30 min, fluorescence was measured at a wavelength of 485 nm (excitation)/535 nm (emission) using a microplate reader (Molecular Devices, San Jose, CA, USA).
Intracellular ROS production was tested following the treatment of SF268 cells with the curcumin derivatives at 10 μg/mL by fluorometry after staining with DCFDA.
Figure 7 Effects of curcumin derivatives on ROS generation. Cells were treated with curcumin derivatives at 10 μg/mL for 3 h. ROS production was determined using the DCFH-DA assay.

Compound | ROS production
O=C1O[C@H]([C@@H](O)CO)C(O)=C1O [ascorbic acid] | expected decrease
OO [Compound H2O2, Hydrogen peroxide] | distinct ROS production
